One molecule from paper PMC4690157, “Sulfur Isotope Effects of Dissimilatory Sulfite Reductase” (Frontiers in Microbiology, 2015) can be followed below.

Assay [1] has as its target T1, D. vulgaris DsrAB (Nitratidesulfovibrio vulgaris, UniProt P45574+P45575).
T1 construct: gene dsvA; native, purified from D. vulgaris cells (Q-Sepharose); heterodimeric DsrAB with siroheme (desulfoviridin)
Briefly: sulfite loss over […] h by HPLC of monobromobimane derivatives; Michaelis-Menten fit. In kind it is biochemical. As to conditions: H2 / [NiFe] hydrogenase / methyl viologen as electron donor system; 50 mM phosphate pH 7.1; anoxic; 20 or 31 °C (fractionation conditions).

In assay [2] the target is T2, A. fulgidus DsrAB (Archaeoglobus fulgidus, UniProt Q59109+Q59110).
T2 construct: gene dsrA; native, purified from A. fulgidus cells; heterodimeric DsrAB with siroheme; free of DsrC
T2 sequence (Q59109 2-418): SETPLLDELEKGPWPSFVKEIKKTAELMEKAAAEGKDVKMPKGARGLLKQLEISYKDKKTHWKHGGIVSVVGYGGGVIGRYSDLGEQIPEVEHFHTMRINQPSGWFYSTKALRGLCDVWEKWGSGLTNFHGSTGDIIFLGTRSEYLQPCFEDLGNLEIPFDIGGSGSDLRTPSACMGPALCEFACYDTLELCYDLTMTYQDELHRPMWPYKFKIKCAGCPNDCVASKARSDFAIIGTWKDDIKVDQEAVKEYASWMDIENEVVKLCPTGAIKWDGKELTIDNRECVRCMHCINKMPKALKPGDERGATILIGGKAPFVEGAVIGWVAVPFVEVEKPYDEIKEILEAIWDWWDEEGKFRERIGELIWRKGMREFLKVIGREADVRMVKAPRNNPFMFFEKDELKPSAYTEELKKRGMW
T2 sequence (Q59110 whole entry): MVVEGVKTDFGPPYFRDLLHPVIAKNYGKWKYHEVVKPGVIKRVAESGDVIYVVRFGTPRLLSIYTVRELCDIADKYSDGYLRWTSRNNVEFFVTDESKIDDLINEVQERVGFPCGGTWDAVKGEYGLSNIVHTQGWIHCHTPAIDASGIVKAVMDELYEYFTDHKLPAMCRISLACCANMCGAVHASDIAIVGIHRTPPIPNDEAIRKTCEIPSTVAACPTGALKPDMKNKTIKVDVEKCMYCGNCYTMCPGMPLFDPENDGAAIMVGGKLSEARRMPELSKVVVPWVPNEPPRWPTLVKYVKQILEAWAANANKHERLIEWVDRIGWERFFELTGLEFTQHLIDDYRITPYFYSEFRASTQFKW
The assay is described as follows: closed-system in vitro sulfite reduction; sulfite loss and product accumulation (fuchsin assay, cyanolysis). As to conditions: 15 mM initial sulfite; 65 °C; pH 7.1; H2 / [NiFe] hydrogenase / methyl viologen as electron donor system. In kind it is biochemical.

T1 sequence (P45574 2-437): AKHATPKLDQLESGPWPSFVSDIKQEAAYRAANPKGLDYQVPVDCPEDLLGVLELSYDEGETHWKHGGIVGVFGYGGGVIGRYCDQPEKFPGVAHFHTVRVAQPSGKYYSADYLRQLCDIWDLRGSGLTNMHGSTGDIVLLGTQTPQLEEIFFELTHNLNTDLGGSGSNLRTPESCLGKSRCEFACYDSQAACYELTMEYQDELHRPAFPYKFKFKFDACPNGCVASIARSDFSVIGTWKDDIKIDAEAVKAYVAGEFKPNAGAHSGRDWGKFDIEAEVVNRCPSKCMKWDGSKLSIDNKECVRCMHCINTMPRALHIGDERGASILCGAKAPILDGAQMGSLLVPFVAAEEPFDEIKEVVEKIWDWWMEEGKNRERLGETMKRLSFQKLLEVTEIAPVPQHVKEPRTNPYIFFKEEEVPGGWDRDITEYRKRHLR
T1 sequence (P45575 2-381): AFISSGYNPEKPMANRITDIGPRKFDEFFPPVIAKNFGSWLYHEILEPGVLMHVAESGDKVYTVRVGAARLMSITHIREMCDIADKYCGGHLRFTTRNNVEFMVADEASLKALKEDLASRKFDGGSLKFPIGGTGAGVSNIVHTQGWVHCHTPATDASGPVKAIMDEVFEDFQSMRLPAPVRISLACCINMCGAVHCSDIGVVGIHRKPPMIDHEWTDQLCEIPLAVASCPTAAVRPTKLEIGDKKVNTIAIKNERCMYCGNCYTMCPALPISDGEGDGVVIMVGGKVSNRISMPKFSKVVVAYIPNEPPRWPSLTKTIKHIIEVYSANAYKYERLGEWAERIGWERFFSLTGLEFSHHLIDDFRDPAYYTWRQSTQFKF

As for `O=S(O)O` [sulfite], the Km entry in assay [1] is “solved for experimental Km and Vmax under our conditions”. Also, the “closed-system in vitro sulfite reduction; sulfite loss and product accumulation” value in assay [2] is “showed consistent loss of sulfite and accumulation of products between replicates”.
